Source: PubChem BioAssay (NCI)
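A five-concentration, 48-hour dose response in 96-well plates underlies each endpoint, interpolated linearly between surrounding concentrations. Abbreviation: GI50, concentration required for 50% inhibition of growth. The concentration for full growth arrest is given as TGI.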

Legend:
Assay in all cases: DTP human tumour cell line panel, 48 h
CCRF-CEM leukemia = tested on: CCRF-CEM leukemia
HL-60(TB) leukemia = tested on: HL-60(TB) leukemia
HOP-62 NSCLC = tested on: HOP-62 NSCLC
IGROV1 ovarian = tested on: IGROV1 ovarian
KM12 colon = tested on: KM12 colon
M14 melanoma = tested on: M14 melanoma
NCI-H522 lung = tested on: NCI-H522 lung
OVCAR-3 ovarian = tested on: OVCAR-3 ovarian
OVCAR-8 ovarian = tested on: OVCAR-8 ovarian
UO-31 renal = tested on: UO-31 renal

Row | Structure (SMILES) | TGI (CCRF-CEM leukemia) [µM] | TGI (HL-60(TB) leukemia) [µM] | TGI (HOP-62 NSCLC) [µM] | TGI (IGROV1 ovarian) [µM] | TGI (KM12 colon) [µM] | TGI (M14 melanoma) [µM] | TGI (NCI-H522 lung) [µM] | TGI (OVCAR-3 ovarian) [µM] | TGI (OVCAR-8 ovarian) [µM] | TGI (UO-31 renal) [µM] | GI50 (M14 melanoma) [µM] | GI50 (OVCAR-3 ovarian) [µM] | GI50 (UO-31 renal) [µM] | GI50 (CCRF-CEM leukemia) [µM] | GI50 (HL-60(TB) leukemia) [µM] | GI50 (HOP-62 NSCLC) [µM] | GI50 (IGROV1 ovarian) [µM] | GI50 (KM12 colon) [µM] | GI50 (NCI-H522 lung) [µM] | GI50 (OVCAR-8 ovarian) [µM]
1 | COc1ccc2c(c1)CCC(CN1CCN(CCOC(c3ccc(F)cc3)c3ccc(F)cc3)CC1)C2O (centres undefined) | 48.3 | 14.6 | 34.5 | 28.4 | 63.2 | 25.5 | 28.6 | 32.5 | 27.4 | – | – | – | – | – | – | – | – | – | – | –
2 | C/C1=N\NC(=O)c2ccccc2C(=O)N/N=C(\C)c2cccc1n2.O=[N+]([O-])[O-].[Zn+2] | > 100 | – | > 100 | > 100 | > 100 | > 100 | > 100 | > 100 | > 100 | > 100 | – | – | – | – | – | – | – | – | – | –
3 | CCN=C=NCCCN(C)C | > 100 | > 100 | > 100 | > 100 | > 100 | > 100 | > 100 | > 100 | > 100 | > 100 | – | – | – | – | – | – | – | – | – | –
4 | COc1ccc2[nH]c3c([N+](=O)[O-])ccc(Cl)c3c(=O)c2c1 | 10.2 | 9.84 | 73.6 | 18.6 | > 73.4 | 35.9 | 36.9 | 31.7 | > 74 | 35.5 | – | – | – | – | – | – | – | – | – | –
5 | Nc1ccc(OCC(O)N2C(=O)c3ccccc3C2=O)cc1 (centres undefined) | > 100 | > 100 | > 100 | > 100 | – | > 100 | > 100 | > 100 | > 100 | > 100 | – | – | – | – | – | – | – | – | – | –
6 | CC(C)(C)C1(c2ccc(C3(c4ccccc4)Oc4ccccc4S3)[nH]2)Oc2ccccc2S1 (centres undefined) | > 100 | > 100 | > 100 | > 100 | – | > 100 | > 100 | > 100 | > 100 | > 100 | – | – | – | – | – | – | – | – | – | –
7 | Nc1cc(S(=O)(=O)O)cc2cc(S(=O)(=O)O)c(N=Nc3ccc(-c4ccc(N=Nc5c(S(=O)(=O)O)cc6cc(S(=O)(=O)O)cc(N)c6c5O)cc4)cc3)c(O)c12 | > 100 | > 100 | > 100 | > 100 | > 100 | – | > 100 | > 100 | > 100 | > 100 | – | – | – | – | – | – | – | – | – | –
8 | COC1/C=C\OC2(C)Oc3c(C)c(O)c4c(O)c(c(/C=N\OCCCc5ccccc5)c(O)c4c3C2=O)NC(=O)/C(C)=C\C=C/C(C)C(O)C(C)C(O)C(C)C(OC(C)=O)C1C (centres undefined) | 6.35 | 5.38 | 6.75 | 6.74 | 14 | 6.76 | 10.7 | 9.61 | 17.8 | – | – | – | – | – | – | – | – | – | – | –
9 | Cc1ccc(P(c2ccc(C)cc2)c2ccc(C)cc2)cc1 | 46.5 | > 100 | – | 53.6 | 60.9 | 50.3 | 28.2 | 29.5 | 59.6 | 4.54 | – | – | – | – | – | – | – | – | – | –
10 | C=C(CN(C)C)C(=O)c1ccc(C)cc1C | 2.14 | 11.6 | 47.5 | 17.7 | 31 | 14.5 | 14.4 | 21.3 | 37.4 | 22.3 | – | – | – | – | – | – | – | – | – | –
11 | O=Nc1ccc(O)c2ncccc12 | > 100 | > 41.6 | 15 | 18.9 | 20.4 | 20.7 | 3.58 | 12.4 | > 34.1 | 13.5 | – | – | – | – | – | – | – | – | – | –
12 | C=C1C(=O)CCC1C(=O)O (centres undefined) | > 100 | > 100 | > 100 | > 100 | > 100 | > 100 | > 100 | > 100 | > 100 | > 100 | – | – | – | – | – | – | – | – | – | –
13 | C[C@H](C(=O)N[C@@H](Cc1ccc(-c2ccccc2)cc1)C(=O)NC1CC(C)(C)N(C)C(C)(C)C1)c1ccc(-c2ccccc2)c(F)c1 | – | – | – | – | – | 3.39 | – | 2.56 | – | 2.64 | 1.74 | 1.19 | 1.27 | – | – | – | – | – | – | –
14 | COc1ccc(-c2nn(-c3ccc(NC(=O)Nc4ccc(Cl)c(Cl)c4)cc3)cc2-c2ccncc2)cc1Cl | > 100 | 6.6 | > 100 | > 100 | > 100 | 5.04 | 5.66 | > 100 | > 100 | > 100 | 1.79 | 2.64 | 1.51 | 2.09 | 2.21 | 3.73 | 3.44 | 2.13 | 1.39 | 2.72
